Test results reported in patent publication US9421237B2, “Tripeptide boronic acid or boronic ester, preparative method and use thereof” (PEKING UNIVERSITY, priority 2009, dated 2016).

Key:
[1] = tested on: HL-60 (promyelocytic leukemia cell strain); experiment: In vitro anti-tumor activity (IC50), standard MTT method; type: cell-based; conditions: Homo sapiens, 72 h, average of three determinations
Experimental: (§1) HL-60, BXPC-3 and U266 were obtained from the American Type Culture Collection (Manassas, Va.), and BGC-823 (human gastric carcinoma cell strain) was obtained from China Pharmaceutical University.
(§2) Test methods: HL-60 cells were cultured in IMDM medium containing 20% fetal bovine serum at 37° C. in 5% CO2; BGC-823 cells and BXPC-3 cells were cultured in RPMI1640 medium containing 10% fetal bovine serum at 37° C. in 5% CO2; U266 cells were cultured in RPMI1640 medium containing 15% fetal bovine serum at 37° C. in 5% CO2.
(§3) The cell growth was measured by the standard MTT method. A dispersions (150 μL, containing 3000 cells) medium was added into each well of a 96-well plate and allowed to grow, after 24 h, ten kinds of medium (50 μL) containing different concentrations of drugs were added into the corresponding wells, and continued to incubate for 72 h. Then a solution containing 5 mg/ml MTT (20 μL) was added into each well and incubated for another 4 h at 37° C. The plate was then centrifugated at 1000 rpm at 4° C. for 5 min, and the medium in upper layer was carefully discarded. The precipitates were dissolved in 100 μL of DMSO, and absorbance was read with an Infinite M200 (Tecan, Austria) microplate reader at 540 nm.
(§4) The result was expressed as IC50 value, which is the average value of three independent determinations.

[2] = tested on: BXPC-3 (human pancreatic cancer cell strain); experiment: as above; type: cell-based; conditions: 72 h, average of three determinations
Experimental: as §1, §2, §3, §4

[3] = tested on: U266 (multiple myeloma cell strain); experiment: as above; type: cell-based; conditions: Homo sapiens, U-266, 72 h, average of three determinations
Experimental: as §1, §2, §3, §4

[4] = tested on: BGC-823 (human gastric carcinoma cell strain); experiment: as above; type: cell-based; conditions: 72 h, average of three determinations
Experimental: as §1, §2, §3, §4

[5] = tested on: HL-60 human leukemia cell; experiment: Preliminary anti-tumor screening in vitro, MTT method; type: cell-based; set-up: key to Test results: +++: inhibition rates at three doses are greater than 50%; ++: inhibition rates at two doses are greater than 50%; +: inhibition rate at one dose is greater than 50%; conditions: HL-60, MTT; for Test results: number of doses with inhibition > 50%; for inhibition at 0.05 µM / inhibition at 0.5 µM / inhibition at 5 µM: Homo sapiens, read-out: Inhibition rate %
Experimental: (§5) The test methods used in this test example is the routine method for anti-tumor activities test in pharmaceutical area, for example, referring to the following reference: (J. Immunol Method, 1983, 65, 55).
(§6) Test models: A: MTT method (HL-60 human leukemia); B: SRB method (BGC-823 human gastric cancer); C: SRB method (Bel-7402 human hepatocarcinoma); D: SRB method (KB human nasopharyngeal carcinoma).
(§7) The aforesaid tests were carried out with the compounds of Examples 1-26 in the present invention, test results are shown in Tables 2-5.

[6] = molecular target: T1, 20S proteasome extracted from rat liver, chymotryptic-like (CT-L) activity (Rattus norvegicus, UniProt P18421+P28075); experiment: Proteasome inhibition, chymotryptic-like (CT-L) activity, fluorescent peptide Suc-leu-leu-Val-Tyr-AMC; type: biochemical; conditions: rat liver 20S proteasome, 37° C., 1 h
T1 construct: 20S proteasome extracted from rat liver; from tissue; host or cells: rat liver
Experimental: (§8) The activities of the proteasome were assayed using fluorescent peptides: Suc-leu-leu-Val-Tyr-AMC (Suc represents succinyl, and AMC represents 7-amino-4-methylcoumarin, purchased from SIGMA) for determining chymotryptic-like (CT-L) activity; Z-Ala-Arg-Arg-AMC (Z represents benzyloxycarbonyl, purchased from Calbiochem) for determining trypsin-like (TL) activity; and Z-leu-leu-Glu-βNA (βNA represents β-naphtylamide, purchased from SIGMA) for determining peptidyl-glutamyl-peptide-hydrolyzing (PGPH) enzyme activity.
(§9) Method for the aforesaid activity assays is as follows: 1 μg of 20S proteasome extracted from rat liver was incubated with a 100 μL solution containing various concentrations of compounds, 50 μM fluorescent peptides and 20 mM Tris-HCl at 37° C. for 1 h, respectively. The fluorescence released from AMC and RNA reagents was measured by a spectrofluorimeter Fluostar OPTIMA and BMG Germany at excitation/emission wavelengths of 380/440 nm and 335/410 nm, respectively. 0.1% DMSO was used as a solvent control. Compared with the fluorescence of solvent control, an inhibition rate was calculated.

[7] = molecular target: T2, 20S proteasome extracted from rat liver, trypsin-like (TL) activity (Rattus norvegicus, UniProt P40112+Q9JHW0); experiment: Proteasome inhibition, trypsin-like (TL) activity, fluorescent peptide Z-Ala-Arg-Arg-AMC; type: biochemical; conditions: rat liver 20S proteasome, 37° C., 1 h; read-out: T-L (IC50)
T2 construct: 20S proteasome extracted from rat liver; from tissue; host or cells: rat liver
Experimental: as §8
as §9, with “calculated. Said assays used anticancer drug bortezomib (leukemia drug), namely PS341 as compound for positive control.” for “calculated.”

[8] = tested on: Bel-7402 human hepatocarcinoma cell; experiment: Preliminary anti-tumor screening in vitro, SRB method; type: cell-based; set-up: key to Test results: +++: inhibition rates at three doses are greater than 50%; ++: inhibition rates at two doses are greater than 50%; +: inhibition rate at one dose is greater than 50%; conditions: Bel-7402, SRB; for Test results: number of doses with inhibition > 50%; for inhibition at 0.05 µM / inhibition at 0.5 µM / inhibition at 5 µM: Homo sapiens, read-out: Inhibition rate %
Experimental: as §5, §6, §7

[9] = tested on: BGC-823 human gastric cancer cell; experiment: as above; type: cell-based; set-up: key to Test results: +++: inhibition rates at three doses are greater than 50%; ++: inhibition rates at two doses are greater than 50%; +: inhibition rate at one dose is greater than 50%; conditions: BGC-823, SRB; for Test results: number of doses with inhibition > 50%; for inhibition at 0.05 µM / inhibition at 0.5 µM / inhibition at 5 µM: Homo sapiens, read-out: Inhibition rate %
Experimental: as §5, §6, §7

[10] = tested on: KB human nasopharyngeal carcinoma cell; experiment: as above; type: cell-based; set-up: key to Test results: +++: inhibition rates at three doses are greater than 50%; ++: inhibition rates at two doses are greater than 50%; +: inhibition rate at one dose is greater than 50%; conditions: for inhibition at 0.05 µM / inhibition at 0.5 µM / inhibition at 5 µM: Homo sapiens, read-out: Inhibition rate %; for Test results: number of doses with inhibition > 50%
Experimental: as §5, §6, §7

[11] = molecular target: T3, 20S proteasome extracted from rat liver, peptidyl-glutamyl-peptide-hydrolyzing (PGPH) enzyme activity (Rattus norvegicus, UniProt P28073+Q9JHW0); experiment: Proteasome inhibition, PGPH activity, fluorescent peptide Z-leu-leu-Glu-βNA; type: biochemical; conditions: rat liver 20S proteasome, 37° C., 1 h
T3 construct: 20S proteasome extracted from rat liver; from tissue; host or cells: rat liver
Experimental: as §8
as §9, with “calculated. Said assays used anticancer drug bortezomib (leukemia drug), namely PS341 as compound for positive control.” for “calculated.”

Row | Compound | IC50 [1] | IC50 [2] | IC50 [3] | IC50 [4] | IC50 [6] | IC50 [7] | Test results [5] | inhibition at 0.05 µM [5] | inhibition at 0.5 µM [5] | inhibition at 5 µM [5] | Test results [8] | inhibition at 0.05 µM [8] | inhibition at 0.5 µM [8] | inhibition at 5 µM [8] | Test results [9] | inhibition at 0.05 µM [9] | inhibition at 0.5 µM [9] | inhibition at 5 µM [9] | inhibition at 0.05 µM [10] | inhibition at 0.5 µM [10] | also measured
1 | CC(C)C[C@H](NC(=O)[C@H](Cc1ccc(O)cc1)NC(=O)[C@H](Cc1ccccc1)NC(=O)c1cnccn1)B(O)O [Compound 6c, N-pyrazineformyl-L-phenylalanyl-L-tyrosyl-L-leucine Boronic Acid] | 552 nM | 445 nM | 250 nM | 5140 nM | 0.395 ± 0.035 nM | > 20 nM | + | -16.1% | -8.48% | 65% | + | -2.64% | -4.84% | 71.2% | + | 2.64% | 25.1% | 97.7% | -13.6% | -5.16% | melting point: 298 to 300 °C; inhibition at 5 µM [10]: 95.4%; Test results [10]: +; IC50 [11]: 4.01 ± 1.47 nM
2 | CC(C)C[C@H](NC(=O)[C@H](Cc1ccccc1)NC(=O)[C@H](Cc1ccc(O)cc1)NC(=O)c1cnccn1)B(O)O [Compound 6d, N-pyrazineformyl-L-tyrosyl-L-phenylalanyl-L-leucine Boronic Acid] | 445 nM | 257 nM | 66.2 nM | 2460 nM | 0.263 ± 0.081 nM | > 20 nM | + | -21.1% | -5.04% | 87.9% | + | 1.7% | 8.79% | 90% | + | 4.33% | 46.7% | 97.5% | 3.23% | 17.3% | melting point: 219 to 221 °C; inhibition at 5 µM [10]: 96.2%; Test results [10]: +; IC50 [11]: 2.5 ± 1.49 nM
3 | CC(C)C[C@H](NC(=O)[C@H](CC(C)C)NC(=O)[C@H](Cc1ccc2ccccc2c1)NC(=O)c1cnccn1)B(O)O [Compound 6m, N-pyrazineformyl-L-naphthylalanyl-L-leucyl-L-leucine Boronic Acid] | 15 nM | 43.5 nM | 120 nM | 1720 nM | 0.22 ± 0.07 nM | > 20 nM | ++ | 4.61% | 85.2% | 87.8% | ++ | 30.3% | 57.7% | 95.2% | +++ | 60.3% | 81.9% | 97% | 40.8% | 86.4% | inhibition at 5 µM [10]: 94.7%; Test results [10]: ++; IC50 [11]: 8.33 ± 2.49 nM

The remaining compounds from weak to strong by IC50 [1], led by results:

Row | IC50 [1] | IC50 [2] | IC50 [3] | IC50 [4] | IC50 [6] | IC50 [7] | Compound | Test results [5] | inhibition at 0.05 µM [5] | inhibition at 0.5 µM [5] | inhibition at 5 µM [5] | Test results [8] | inhibition at 0.05 µM [8] | inhibition at 0.5 µM [8] | inhibition at 5 µM [8] | Test results [9] | inhibition at 0.05 µM [9] | inhibition at 0.5 µM [9] | inhibition at 5 µM [9] | inhibition at 0.05 µM [10] | inhibition at 0.5 µM [10] | also measured
4 | 19.6 nM | 33.3 nM | 195 nM | 2450 nM | 0.335 ± 0.078 nM | > 20 nM | CC(C)C[C@H](NC(=O)[C@H](Cc1ccc2ccccc2c1)NC(=O)[C@H](Cc1ccc2ccccc2c1)NC(=O)c1cnccn1)B(O)O [Compound 6h, N-pyrazineformyl-L-naphthylalanyl-L-naphthylalanyl-L-leucine Boronic Acid] | ++ | 13.6% | 85.7% | 88.3% | + | 6.61% | 49.8% | 94.8% | ++ | 44.9% | 88.1% | 97.6% | 14.2% | 91.8% | melting point: 145 to 146 °C; inhibition at 5 µM [10]: 97.4%; Test results [10]: ++
5 | 10 nM | 31.8 nM | 53 nM | 2810 nM | 0.417 ± 0.07 nM | > 20 nM | CC(C)C[C@H](NC(=O)[C@H](Cc1ccccc1)NC(=O)[C@H](Cc1ccc2ccccc2c1)NC(=O)c1cnccn1)B(O)O [Compound 6b, N-pyrazineformyl-L-naphthylalanyl-L-phenylalanyl-L-leucine Boronic Acid] | ++ | 3.58% | 87.3% | 88.9% | + | 22.9% | 56.1% | 91.6% | +++ | 56.4% | 93.7% | 96.7% | 23.3% | 91.5% | melting point: 134 to 135 °C; inhibition at 5 µM [10]: 96.6%; Test results [10]: ++; IC50 [11]: 4.43 ± 1.41 nM
